Data on one compound can be found in publication PMC2966118 (The Journal of Biological Chemistry, 2010).

The experiment has as its target human recombinant TPC2 (hTPC2, HA-HsTPC2) (Homo sapiens, UniProt Q8NHX9). Description: single-channel recording in planar lipid bilayer, open probability. The class given is biochemical.

Sequence of human recombinant TPC2 (hTPC2, HA-HsTPC2) (Q8NHX9 whole entry): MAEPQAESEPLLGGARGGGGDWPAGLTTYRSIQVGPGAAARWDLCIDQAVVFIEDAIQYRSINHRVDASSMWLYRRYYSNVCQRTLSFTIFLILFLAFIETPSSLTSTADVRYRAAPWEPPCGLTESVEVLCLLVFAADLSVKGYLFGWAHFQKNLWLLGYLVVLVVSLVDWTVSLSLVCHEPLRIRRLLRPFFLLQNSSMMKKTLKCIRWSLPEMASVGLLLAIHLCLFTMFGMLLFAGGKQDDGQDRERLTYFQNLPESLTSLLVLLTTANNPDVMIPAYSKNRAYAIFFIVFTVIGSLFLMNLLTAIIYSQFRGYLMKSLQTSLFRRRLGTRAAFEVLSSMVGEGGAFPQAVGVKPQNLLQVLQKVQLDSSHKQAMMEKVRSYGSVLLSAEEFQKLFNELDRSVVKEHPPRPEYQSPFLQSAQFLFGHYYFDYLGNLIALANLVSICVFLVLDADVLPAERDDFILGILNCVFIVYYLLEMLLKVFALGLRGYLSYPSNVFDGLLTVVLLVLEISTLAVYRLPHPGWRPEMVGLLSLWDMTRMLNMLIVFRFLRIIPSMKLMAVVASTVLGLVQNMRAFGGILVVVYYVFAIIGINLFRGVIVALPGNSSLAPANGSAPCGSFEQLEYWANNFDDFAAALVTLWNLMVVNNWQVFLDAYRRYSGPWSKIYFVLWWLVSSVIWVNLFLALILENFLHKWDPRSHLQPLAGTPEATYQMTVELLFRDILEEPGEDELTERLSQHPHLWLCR

For `Nc1ncnc2c1ncn2[C@@H]1O[C@H](COP(=O)(O)OP(=O)(O)OC[C@H]2O[C@@H]([n+]3cccc(C(=O)O)c3)[C@H](O)[C@@H]2O)[C@@H](O)[C@H]1OP(=O)(O)O` [NAADP], the half-maximal effective concentration (EC50) stood at 500 nM.

The EC50 is the midpoint of the concentration-response curve.
